Test results from patent publication US9914731B2, “Pyrazolo[1,5-a]pyridine derivatives and methods of their use” (Ignyta, Inc., priority 2013, dated 2018).

Target: recombinant human baculovirus-expressed cMET (Homo sapiens (Human), UniProt P08581)
Experiment: c-MET kinase assay (HTRF KinEASE)
Type: biochemical
Conditions: average of two or more determinations; read-out: c-MET IC50

| SMILES | IC50 [nM] |
| --- | --- |
| CCn1cc(C(=O)Nc2ccc(Oc3cc(-c4cn(C)cn4)cn4nccc34)nc2)c(=O)n(-c2ccc(F)cc2)c1=O [Example 115, 1-Ethyl-3-(4-fluoro-phenyl)-2,4-dioxo-1,2,3,4-tetrahydro-pyrimidine-5-carboxylic acid{6-[6-(1-methyl-1H-imidazol-4-yl)-pyrazolo[1,5-a]pyridin-4-yloxy]-pyridin-3-yl}-amide] | < 10 |
| CC(C)n1cc(C(=O)Nc2ccc(Oc3cc(-c4cn(C)cn4)cn4nccc34)nc2)c(=O)n(-c2ccc(F)cc2)c1=O [Example 116, 3-(4-Fluoro-phenyl)-1-isopropyl-2,4-dioxo-1,2,3,4-tetrahydro-pyrimidine-5-carboxylic acid{6-[6-(1-methyl-1H-imidazol-4-yl)-pyrazolo[1,5-a]pyridin-4-yloxy]-pyridin-3-yl}-amide] | < 10 |
| CCOc1ccn(-c2ccc(F)cc2)c(=O)c1C(=O)Nc1ccc(Oc2cc(-c3cn(C)cn3)cn3nccc23)cc1 [Example 118, 4-Ethoxy-1-(4-fluoro-phenyl)-2-oxo-1,2-dihydro-pyridine-3-carboxylic acid {4-[6-(1-methyl-1H-imidazol-4-yl)-pyrazolo[1,5-a]pyridin-4-yloxy]-phenyl}-amide] | < 10 |
| CC(C)n1cc(C(=O)Nc2ccc(Oc3cc(-c4cn(C)cn4)cn4nccc34)c(OCc3ccccc3)c2)c(=O)n(-c2ccc(F)cc2)c1=O [Example 121, 3-(4-Fluoro-phenyl)-1-isopropyl-2,4-dioxo-1,2,3,4-tetrahydro-pyrimidine-5-carboxylic acid {3-benzyloxy-4-[6-(1-methyl-1H-imidazol-4-yl)-pyrazolo[1,5-a]pyridine-4-yloxy]-phenyl}-amide] | 10 to 100 |
| CCn1cc(C(=O)Nc2ccc(Oc3cc(-c4cn(C)cn4)cn4nccc34)c(C(F)(F)F)c2)c(=O)n(-c2ccc(F)cc2)c1=O [Example 125, 1-Ethyl-3-(4-fluoro-phenyl)-2,4-dioxo-1,2,3,4-tetrahydro-pyrimidine-5-carboxylic acid {4-[6-(1-methyl-1H-imidazol-4-yl)-pyrazolo[1,5-a]pyridin-4-yloxy]-3-trifluoromethyl-phenyl}-amide] | < 10 |
| CC(C)n1cc(C(=O)Nc2ccc(Oc3cc(-c4cn(C)cn4)cn4nccc34)c(C(F)(F)F)c2)c(=O)n(-c2ccc(F)cc2)c1=O [Example 126, 3-(4-Fluoro-phenyl)-1-isopropyl-2,4-dioxo-1,2,3,4-tetrahydro-pyrimidine-5-carboxylic acid{4-[6-(1-methyl-1H-imidazol-4-yl)-pyrazolo[1,5-a]pyridin-4-yloxy]-3-trifluoromethyl-phenyl}-amide] | 10 to 100 |
| CCn1nc(C(=O)Nc2ccc(Oc3cc(-c4cn(C)cn4)cn4nccc34)cn2)c(=O)n(-c2ccc(F)cc2)c1=O [Example 130, 2-Ethyl-4-(4-fluoro-phenyl)-3,5-dioxo-2,3,4,5-tetrahydro-1,2,4-triazine-6-carboxylic acid{5-[6-(1-methyl-1H-imidazol-4-yl)-pyrazolo[1,5-a]pyridin-4-yloxy]-pyridin-2-yl}-amide] | < 10 |
| CC(C)n1cc(C(=O)Nc2ccc(Oc3cc(-c4ncccn4)cn4nccc34)c(F)c2)c(=O)n(-c2ccc(F)cc2)c1=O [Example 133, 3-(4-Fluoro-phenyl)-1-isopropyl-2,4-dioxo-1,2,3,4-tetrahydro-pyrimidine-5-carboxylic acid[3-fluoro-4-(6-pyrimidin-2-yl-pyrazolo[1,5-a]pyridin-4-yloxy)-phenyl]-amide] | 10 to 100 |
| CCn1cc(C(=O)Nc2ccc(Oc3cc(-c4cnccn4)cn4nccc34)c(F)c2)c(=O)n(-c2ccc(F)cc2)c1=O [Example 134, 1-Ethyl-3-(4-fluoro-phenyl)-2,4-dioxo-1,2,3,4-tetrahydro-pyrimidine-5-carboxylic acid[3-fluoro-4-(6-pyrazin-2-yl-pyrazolo[1,5-a]pyridin-4-yloxy)-phenyl]-amide] | 10 to 100 |
| CC(C)n1cc(C(=O)Nc2ccc(Oc3cc(-c4cnccn4)cn4nccc34)c(F)c2)c(=O)n(-c2ccc(F)cc2)c1=O [Example 135, 3-(4-Fluoro-phenyl)-1-isopropyl-2,4-dioxo-1,2,3,4-tetrahydro-pyrimidine-5-carboxylic acid[3-fluoro-4-(6-pyrazin-2-yl-pyrazolo[1,5-a]pyridin-4-yloxy)-phenyl]-amide] | 10 to 100 |
| Cc1cccc(-c2cc(Oc3ccc(NC(=O)c4cn(C(C)C)c(=O)n(-c5ccc(F)cc5)c4=O)cc3F)c3ccnn3c2)n1 [Example 137, 3-(4-Fluoro-phenyl)-1-isopropyl-2,4-dioxo-1,2,3,4-tetrahydro-pyrimidine-5-carboxylic acid{3-fluoro-4-[6-(6-methyl-pyridin-2-yl)-pyrazolo[1,5-a]pyridin-4-yloxy]-phenyl}-amide] | 10 to 100 |
| CCn1cc(C(=O)Nc2ccc(Oc3cc(NS(C)(=O)=O)cn4nccc34)c(F)c2)c(=O)n(-c2ccc(F)cc2)c1=O [Example 140, 1-Ethyl-3-(4-fluoro-phenyl)-2,4-dioxo-1,2,3,4-tetrahydro-pyrimidine-5-carboxylic acid[3-fluoro-4-(6-methanesulfonylamino-pyrazolo[1,5-a]pyridin-4-yloxy)-phenyl]-amide] | 10 to 100 |
| CCn1cc(C(=O)Nc2ccc(Oc3cc(NC(=O)N(C)C)cn4nccc34)c(F)c2)c(=O)n(-c2ccc(F)cc2)c1=O [Example 146, 1-Ethyl-3-(4-fluoro-phenyl)-2,4-dioxo-1,2,3,4-tetrahydro-pyrimidine-5-carboxylic acid {4-[6-(3,3-dimethyl-urea)-pyrazolo[1,5-a]pyridin-4-yloxy]-3-fluoro-phenyl}-amide] | < 10 |

Other lines, results leading:

| IC50 [nM] | SMILES |
| --- | --- |
| 10 to 100 | CCn1cc(C(=O)Nc2ccc(Oc3cc(-c4cn(C)cn4)cn4nccc34)c(OCc3ccccc3)c2)c(=O)n(-c2ccc(F)cc2)c1=O [Example 119] |
| 10 to 100 | CCn1cc(C(=O)Nc2ccc(Oc3cc(-c4cn(C)cn4)cn4nccc34)c(O)c2)c(=O)n(-c2ccc(F)cc2)c1=O [Example 120, 1-Ethyl-3-(4-fluoro-phenyl)-2,4-dioxo-1,2,3,4-tetrahydro-pyrimidine-5-carboxylic acid{3-hydroxy-4-[6-(1-methyl-1H-imidazol-4-yl)-pyrazolo[1,5-a]pyridin-4-yloxy]-phenyl}-amide] |
| 10 to 100 | CC(C)n1cc(C(=O)Nc2ccc(Oc3cc(-c4cn(C)cn4)cn4nccc34)c(O)c2)c(=O)n(-c2ccc(F)cc2)c1=O [Example 122, 3-(4-Fluoro-phenyl)-1-isopropyl-2,4-dioxo-1,2,3,4-tetrahydro-pyrimidine-5-carboxylic acid{3-hydroxy-4-[6-(1-methyl-1H-imidazol-4-yl)-pyrazolo[1,5-a]pyridin-4-yloxy]-phenyl}-amide] |
| < 10 | CCCCCn1cc(C(=O)Nc2ccc(Oc3cc(-c4cn(C)cn4)cn4nccc34)c(F)c2)c(=O)n(-c2ccc(F)cc2)c1=O [Example 123, 3-(4-Fluoro-phenyl)-2,4-dioxo-1-pentyl-1,2,3,4-tetrahydro-pyrimidine-5-carboxylic acid{3-fluoro-4-[6-(1-methyl-1H-imidazol-4-yl)-pyrazolo[1,5-a]pyridin-4-yloxy]-phenyl}-amide] |
| < 10 | CC(C)n1nc(C(=O)Nc2ccc(Oc3cc(-c4cn(C)cn4)cn4nccc34)cn2)c(=O)n(-c2ccc(F)cc2)c1=O [Example 131, 4-(4-Fluoro-phenyl)-2-isopropyl-3,5-dioxo-2,3,4,5-tetrahydro-1,2,4-triazine-6-carboxylic acid{5-[6-(1-methyl-1H-imidazol-4-yl)-pyrazolo[1,5-a]pyridin-4-yloxy]-pyridin-2-yl}-amide] |
| 10 to 100 | CCn1cc(C(=O)Nc2ccc(Oc3cc(-c4ncccn4)cn4nccc34)c(F)c2)c(=O)n(-c2ccc(F)cc2)c1=O [Example 132, 1-Ethyl-3-(4-fluoro-phenyl)-2,4-dioxo-1,2,3,4-tetrahydro-pyrimidine-5-carboxylic acid [3-fluoro-4-(6-pyrimidin-2-yl-pyrazolo[1,5-a]pyridin-4-yloxy)-phenyl]-amide] |
| 10 to 100 | CCn1cc(C(=O)Nc2ccc(Oc3cc(-c4cccc(C)n4)cn4nccc34)c(F)c2)c(=O)n(-c2ccc(F)cc2)c1=O [Example 136, 1-Ethyl-3-(4-fluoro-phenyl)-2,4-dioxo-1,2,3,4-tetrahydro-pyrimidine-5-carboxylic acid{3-fluoro-4-[6-(6-methyl-pyridin-2-yl)-pyrazolo[1,5-a]pyridin-4-yloxy]-phenyl}-amide] |
| < 10 | CC(C)n1cc(C(=O)Nc2ccc(Oc3cc(C(=O)N(C)C)cn4nccc34)c(F)c2)c(=O)n(-c2ccc(F)cc2)c1=O [Example 138, 4-(2-Fluoro-4-{[3-(4-fluoro-phenyl)-1-isopropyl-2,4-dioxo-1,2,3,4-tetrahydro-pyrimidine-5-carbonyl]-amino}-phenoxy)-pyrazolo[1,5-a]pyridine-6-carboxylic acid dimethylamide] |
| < 10 | CCn1cc(C(=O)Nc2ccc(Oc3cc(C(=O)N(C)C)cn4nccc34)c(F)c2)c(=O)n(-c2ccc(F)cc2)c1=O [Example 139, 4-(4-{[1-Ethyl-3-(4-fluoro-phenyl)-2,4-dioxo-1,2,3,4-tetrahydro-pyrimidine-5-carbonyl]-amino}-2-fluoro-phenoxy)-pyrazolo[1,5-a]pyridine-6-carboxylic acid dimethylamide] |
| 10 to 100 | CC(C)n1cc(C(=O)Nc2ccc(Oc3cc(NS(C)(=O)=O)cn4nccc34)c(F)c2)c(=O)n(-c2ccc(F)cc2)c1=O [Example 141, 3-(4-Fluoro-phenyl)-1-isopropyl-2,4-dioxo-1,2,3,4-tetrahydro-pyrimidine-5-carboxylic acid[3-fluoro-4-(6-methanesulfonylamino-pyrazolo[1,5-a]pyridin-4-yloxy)-phenyl]-amide] |
| < 10 | CC(=O)Nc1cc(Oc2ccc(NC(=O)c3cn(C(C)C)c(=O)n(-c4ccc(F)cc4)c3=O)cc2F)c2ccnn2c1 [Example 143, 3-(4-Fluoro-phenyl)-1-isopropyl-2,4-dioxo-1,2,3,4-tetrahydro-pyrimidine-5-carboxylic acid[4-(6-acetylamino-pyrazolo[1,5-a]pyridin-4-yloxy)-3-fluoro-phenyl]-amide] |
